In patent US7998952B2, “Thiolactams and uses thereof” (Millennium Pharmaceuticals, Inc., priority 2008, dated 2011):

Each compound was assayed against T1, recombinant human PLK1[2-369]T210D (Homo sapiens, UniProt P53350, T210D) (assay: PLK1 DELFIA Kinase Assay). Conditions: 50 μM ATP, 2 μM peptide substrate, 0.3 nM enzyme, 90 minutes at room temperature.
T1 construct: recombinant human PLK1[2-369]T210D; Smt (SUMO) fusion partner (N, cleaved yes); host or cells: E. coli
Assay type: biochemical
Method: Recombinant human PLK1 was expressed in E. coli as an N-terminal Smt fusion protein using a proprietary vector (pSGX4) by Structural Genomics (SGX). The fusion partner was removed through cleavage with Ulp1 after an initial purification using a Ni2+ affinity column.
PLK1 DELFIA® Kinase Assay
The enzymatic reaction mixture, with or without PLK inhibitors, was incubated 90 minutes at room temperature before termination with 50 μL of STOP buffer containing 1% BSA, 0.05% Tween20, 100 mM EDTA. 50 μL of the stopped enzyme reaction mixture was transferred to a Neutravidin-coated 384-well plate (Pierce) and incubated at room temperature for 60 minutes. […] The wells were washed and then the bound europium was liberated using 50 μL of Enhancement Solution (Perkin Elmer). Quantification of europium was done using a Pherastar (BMG Labtech)

T1 sequence (P53350 2-369 T210D): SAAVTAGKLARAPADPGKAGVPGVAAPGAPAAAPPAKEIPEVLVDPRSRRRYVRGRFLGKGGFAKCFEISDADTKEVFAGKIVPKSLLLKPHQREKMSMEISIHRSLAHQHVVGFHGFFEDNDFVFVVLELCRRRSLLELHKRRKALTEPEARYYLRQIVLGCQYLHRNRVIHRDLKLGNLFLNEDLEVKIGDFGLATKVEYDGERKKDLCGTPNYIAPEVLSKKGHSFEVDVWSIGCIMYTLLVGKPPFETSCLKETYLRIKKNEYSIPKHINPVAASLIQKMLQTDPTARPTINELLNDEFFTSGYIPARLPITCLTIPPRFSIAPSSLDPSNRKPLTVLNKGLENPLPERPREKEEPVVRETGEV

IC50 [nM]	SMILES
< 5	COc1ccc2c(c1)NC(=S)Cc1cnc(Nc3cc(CCCN(C)C)cnc3C)nc1-2 [Compound I-1, 2-({5-[3-(dimethylamino)propyl]-2-methylpyridin-3-yl}amino)-9-methoxy-5,7-dihydro-6H-pyrimido[5,4-d][1]benzazepine-6-thione]
< 5	CCN1CCN(c2cnc(C)c(Nc3ncc4c(n3)-c3ccc(C(F)(F)F)cc3NC(=S)C4)c2)C[C@@H]1C [Compound I-2, 2-({5-[(3S)-4-ethyl-3-methylpiperazin-1-yl]-2-methylpyridin-3-yl}amino)-9-(trifluoromethyl)-5,7-dihydro-6H-pyrimido[5,4-d][1]benzazepine-6-thione]
5 to 25	Cc1nc(N(C)C2CCN(C)C2)ccc1Nc1ncc2c(n1)-c1ccc(Cl)cc1NC(=S)C2 (centres unmarked) [Compound I-3, 9-chloro-2-({2-methyl-6-[methyl(1-methylpyrrolidin-3-yl)amino]pyridin-3-yl}amino)-5,7-dihydro-6H-pyrimido[5,4-d][1]benzazepine-6-thione]
< 5	Cc1ccc(Nc2ncc3c(n2)-c2ccc(C(F)(F)F)cc2NC(=S)C3)c(C)n1 [Compound I-4, 2-[(2,6-dimethylpyridin-3-yl)amino]-9-(trifluoromethyl)-5,7-dihydro-6H-pyrimido[5,4-d][1]benzazepine-6-thione]
< 5	CCc1ccc2c(c1)NC(=S)Cc1cnc(Nc3cc(CCCN(C)C)cnc3C)nc1-2 [Compound I-5, 2-({5-[3-(dimethylamino)propyl]-2-methylpyridin-3-yl}amino)-9-ethyl-5,7-dihydro-6H-pyrimido[5,4-d][1]benzazepine-6-thione]
< 5	Cc1ncc(CCN2CCN(C)CC2)cc1Nc1ncc2c(n1)-c1ccc(Cl)cc1NC(=S)C2 [Compound I-6, 9-chloro-2-({2-methyl-5-[2-(4-methylpiperazin-1-yl)ethyl]pyridin-3-yl}amino)-5,7-dihydro-6H-pyrimido[5,4-d][1]benzazepine-6-thione]
< 5	Cc1nc(N2CCCC(N(C)C)C2)ccc1Nc1ncc2c(n1)-c1ccc(Cl)cc1NC(=S)C2 (centres unmarked) [Compound I-7, 9-chloro-2-({6-[3-(dimethylamino)piperidin-1-yl]-2-methylpyridin-3-yl}amino)-5,7-dihydro-6H-pyrimido[5,4-d][1]benzazepine-6-thione]
< 5	COc1ncc(Nc2ncc3c(n2)-c2ccc(Cl)cc2NC(=S)C3)cc1CCCN(C)C [Compound I-8, 9-chloro-2-({5-[3-(dimethylamino)propyl]-6-methoxypyridin-3-yl}amino)-5,7-dihydro-6H-pyrimido[5,4-d][1]benzazapine-6-thione]
< 5	Cc1nc(N2CCCC(N(C)C)C2)ccc1Nc1ncc2c(n1)-c1ccc(C(F)(F)F)cc1NC(=S)C2 (centres unmarked) [Compound I-9, 2-({6-[3-(dimethylamino)piperidin-1-yl]-2-methylpyridin-3-yl}amino)-9-(trifluoromethyl)-5,7-dihydro-6H-pyrimido[5,4-d][1]benzazepine-6-thione]
< 5	Cc1ncc(CCN2C[C@@H](C)O[C@H](C)C2)cc1Nc1ncc2c(n1)-c1ccc(Cl)cc1NC(=S)C2 [Compound I-10]
< 5	CCN1CCN(c2cncc(Nc3ncc4c(n3)-c3ccc(Cl)cc3NC(=S)C4)c2)C[C@@H]1C [Compound I-11, 9-chloro-2-({5-[(3S)-4-ethyl-3-methylpiperazin-1-yl]pyridin-3-yl}amino)-5,7-dihydro-6H-pyrimido[5,4-d][1]benzazepine-6-thione]
< 5	Cc1ncc(CCCCN(C)C)cc1Nc1ncc2c(n1)-c1ccc(C(F)(F)F)cc1NC(=S)C2 [Compound I-12, 2-({5-[4-(dimethylamino)butyl]-2-methylpyridin-3-yl}amino)-9-(trifluoromethyl)-5,7-dihydro-6H-pyrimido[5,4-d][1]benzazepine-6-thione]
< 5	S=C1Cc2cnc(Nc3ccc(N4CCOCC4)nc3)nc2-c2ccc(Cl)cc2N1 [Compound I-13, 9-chloro-2-[(6-morpholin-4-ylpyridin-3-yl)amino]-5,7-dihydro-6H-pyrimido[5,4-d][1]benzazepine-6-thione]
< 5	Cc1ncc(C2CCN(C)CC2)cc1Nc1ncc2c(n1)-c1ccc(Cl)cc1NC(=S)C2 [Compound I-14, 9-chloro-2-{[2-methyl-5-(1-methylpiperidin-4-yl)pyridin-3-yl]amino}-5,7-dihydro-6H-pyrimido[5,4-d][1]benzazepine-6-thione]
< 5	Cc1ncc(CCN2CCC(N(C)C)C2)cc1Nc1ncc2c(n1)-c1ccc(Cl)cc1NC(=S)C2 (centres unmarked) [Compound I-15, 9-chloro-2-[(5-{2-[3-(dimethylamino)pyrrolindin-1-yl]ethyl}-2-methylpridin-3-yl)amino]-5,7-dihydro-6H-pyrimido[5,4-d][1]benzazepine-6-thione]
5 to 25	Cc1nc(CCCN(C)C)ccc1Nc1ncc2c(n1)-c1ccc(Cl)cc1NC(=S)C2 [Compound I-16, 9-chloro-2-({6-[3-(dimethylamino)propyl]-2-methylpyridin-3-yl}amino)-5,7-dihydro-6H-pyrimido[5,4-d][1]benzazepine-6-thione]
< 5	CCN1CCC(c2cnc(C)c(Nc3ncc4c(n3)-c3ccc(Cl)cc3NC(=S)C4)c2)CC1 [Compound I-17, 9-chloro-2-{[5-(1-ethylpiperidin-4-yl)-2-methylpyridin-3-yl]amino}-5,7-dihydro-6H-pyrimido[5,4-d][1]benzazepine-6-thione]
< 5	Cc1nc(NC2CCOCC2)ccc1Nc1ncc2c(n1)-c1ccc(C(F)(F)F)cc1NC(=S)C2 [Compound I-18, 2-{[2-methyl-6-(tetrahydro-2H-pyran-4-ylamino)pyridin-3-yl]amino}-9-(trifluoromethyl)-5,7-dihydro-6H-pyrimido[5,4-d][1]benzazepine-6-thione]
< 5	Cc1nc(NC2CCOCC2)ccc1Nc1ncc2c(n1)-c1ccc(Cl)cc1NC(=S)C2 [Compound I-19, 9-chloro-2-{[2-methyl-6-(tetrahydro-2H-pyran-4-ylamino)pyridin-3-yl]amino}-5,7-dihydro-6H-pyrimido[5,4-d][1]benzazepine-6-thione]
< 5	Cc1nc(C(=O)NCCN2CCOCC2)ccc1Nc1ncc2c(n1)-c1ccc(C(F)(F)F)cc1NC(=S)C2 [Compound I-21]
< 5	Cc1nc(NC2CCN(C)CC2)ccc1Nc1ncc2c(n1)-c1ccc(Cl)cc1NC(=S)C2 [Compound I-22, 9-chloro-2-({2-methyl-6-[(1-methylpiperidin-4-yl)amino]pyridin-3-yl}amino)-5,7-dihydro-6H-pyrimido[5,4-d][1]benzazepine-6-thione]
< 5	Cc1nc(NCCCN(C)C)ccc1Nc1ncc2c(n1)-c1ccc(C(F)(F)F)cc1NC(=S)C2 [Compound I-23, 2-[(6-{[3-(dimethylamino)propyl]amino}-2-methylpyridin-3-yl)amino]-9-(trifluoromethyl)-5,7-dihydro-6H-pyrimido[5,4-d][1]benzazepine-6-thione]
< 5	COc1ncc(CCCN(C)C)cc1Nc1ncc2c(n1)-c1ccc(Cl)cc1NC(=S)C2 [Compound I-24, 9-chloro-2-({5-[3-(dimethylamino)propyl]-2-methoxypyridin-3-yl}amino)-5,7-dihydro-6H-pyrimido[5,4-d][1]benzazepine-6-thione]
